{
  "source": "paper PMC3805977",
  "about": "(Scientific Reports, 2013)",
  "tested_on": "HIV-1",
  "assay": "HIV-1 inhibition assay, isolates not separated",
  "type": "cell-based",
  "details": "across HIV-1 clades; effect augmented with streptavidin conjugation",
  "data": [
    {"sequence": "SSCSVRSSCRLYYSC", "values": [
      {"measurement": "HIV-1 inhibitory activity, in words", "result": "did not show any HIV-1 inhibition"}
    ]}
  ]
}
